Data: patent US12594257B2, “Means and methods for improving anti-tumoral efficacy of transmembrane channel protein blockers” (ARDAN PHARMA S.A.S., priority 2021, dated 2026)
“Also recorded” adds a separate entry of the source. Read-outs that look alike come from different tables or passages of the source.

Columns and labels:
CD11c+ splenic DCs = assay: Antigen cross-presentation assay in mouse splenic dendritic cells (B3Z T cell activation, β-galactosidase readout); format: cell-based
Experimental: Antigen cross-presentation assays in mouse splenic dendritic cells: To obtain splenic DCs, spleen of C57BL/6 mice was extracted, cut into small pieces and treated with collagenase-D (Roche, Merck). After 30 minutes of incubation at 37° C., the enzymatic reaction was stopped with a 10 mM EDTA solution. Lysis of red blood cells was performed with an ammonium chloride solution. Finally, cells were washed with PBS/SFB1%. […] Briefly, splenic cells were labeled with anti-CD11c antibodies conjugated to the beads. The cells were allowed to pass through a magnetic column subjected to a magnetic field. Thereby, CD11c^+ cells were retained on the column. […]
CD11c^+ spleen cells were incubated with 3 mg/mL of soluble OVA, or OVA plus 20 μM of free (+)-BayK8644, 20 μM of (+)-BayK8644 encapsulated into chitosan nanoparticles (NP-BayK8644) or empty counterpart (eNP) for 4 hours in supplemented-RPMI medium. […] The activation of B3Z cell line was measured detecting β-galactosidase activity by optical density (absorbance at 595-655 nm) using chlorophenol red-β-D-galactopyranoside (CPRG; Roche) as substrate for the reaction.
(+)-BayK8644 inhibits antigen cross-presentation by splenic DCs in vitro: We first studied whether (+)-BayK8644 inhibits antigen cross-presentation in vitro. […] B3Z T cell activation was measured by assessing β-galactosidase activity in a colorimetric assay. […]

E.G7-OVA thymic lymphoma = assay: Therapeutic treatment of established E.G7-OVA tumors, intratumoral injection; format: in vivo, mouse; conditions: WT mice, established EG7 tumors, i.t. 70 nmoles every two days, five injections; vs eNPs or vehicle
Experimental: Tumor Models and Treatments: WT and Tmem176b^−/− C57BL/6 mice were injected s.c with 0.5×10^6 E.G7-OVA thymic lymphoma cells. At the indicated experiment, injection was performed alternating one Tmem176b and one Tmem176b^−/− mouse until completing both groups. In treated animals, alternation was done between (+)-BayK8644- and vehicle-treated animals or NP-BayK8644 and eNP-treated animals. Tumor growth was caliper measured manually every 2-3 days, and the two major diameters were taken. 70 nmoles of free (+)-BayK8644 or (+)-BayK8644 encapsulated in chitosan nanoparticles, or the same amount of empty NPs injections were repeated at the +2, +4, +6, +8 days after the first injection. Mice were sacrificed when one of the major tumor diameters reached 2 cm.
WT and Tmem176b^−/− animals were inoculated with EG7 tumors. Once tumors reached 25 mm^2, animals were i.t. injected with 70×10^−9 moles of (+)-BayK8644, NP-PEG-BayK8644 or eNP-PEG. Treatments were repeated every two days reaching a total of five injections. Mice were euthanized when the longer diameter reached tumors reached […].

[1] = tested on: L-type voltage-gated Ca2+ channels; conditions: cited from earlier work
murine cancer models = conditions: cited from earlier work; for Tumor growth, preventive protocol: before tumor establishment
[2] = mouse, in vivo; cited from earlier work

Compound	B3Z T cell activation by DCs loaded with OVA protein (cross-presentation) (CD11c+ splenic DCs; 3 mg/ml soluble OVA 4 hours, 10 μM or 20 μM)	B3Z T cell activation by DCs loaded with OVA peptide SIINFEKL (CD11c+ splenic DCs; SIINFEKL 45 minutes, 20 μM)	Mouse survival (E.G7-OVA thymic lymphoma)	Tumor growth (E.G7-OVA thymic lymphoma)	Effect on L-type Ca++ channels [1]	Tumor growth, preventive protocol (murine cancer models)	Tumor growth, preventive protocol (murine cancer models; listed as BayK8644)	Caspase-1 activation in the TDLN (murine cancer models; i.p)	Tumor growth, therapeutic protocol (murine cancer models; mice bearing established tumors)	Toxicities in mice [2]
COC(=O)C1=C(C)NC(C)=C([N+](=O)[O-])C1c1ccccc1C(F)(F)F (single isomer, unassigned; (+)) [(+)-BayK8644]	significantly decreased their capacity to activate B3Z cells	did not inhibit activation of B3Z cells	failed	failed to control tumor growth	inhibitor	controlled tumor growth; also recorded: controlled its growth	controlled tumor growth	increased Caspase-1 activation	failed to do so	not associated with toxicities
COC(=O)C1=C(C)NC(C)=C([N+](=O)[O-])C1c1ccccc1C(F)(F)F (single isomer, unassigned; (-)) [(−)-BayK8644]					agonists					
